From PubChem BioAssay AID328 (DTP/NCI, 2004)
“And” between values parts separate entries of the source, which are not always exact repeats. Identical values can stand only once. Inconclusive results and toxic doses are left out.

Test system: BDF1 mice, P388 leukemia ip, median survival T/C
Assay: NCI In Vivo Anticancer Drug Screen. Data for tumor model P388 Leukemia (intraperitoneal) in B6D2F1 (BDF1) mice
Settings: endpoint: median survival time, higher = longer survival
Summary of the method: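 Survival ratio, drug arm over vehicle arm, in mice with a transplanted tumour.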

[1] = dose: 50.0 mg/kg/injection, schedule: Q01DX009 (ip), vehicle: saline with Tween-80
[2] = dose: 100.0 mg/kg/injection, schedule: Q01DX009 (ip), vehicle: saline with Tween-80
[3] = dose: 200.0 mg/kg/injection, schedule: Q01DX009 (ip), vehicle: saline with Tween-80
[4] = dose: 100.0 mg/kg/injection, schedule: Q04DX003 (ip), vehicle: saline with Tween-80
[5] = dose: 200.0 mg/kg/injection, schedule: Q04DX003 (ip), vehicle: saline with Tween-80
[6] = dose: 400.0 mg/kg/injection, schedule: Q01DX009 (ip), vehicle: saline with Tween-80
[7] = dose: 400.0 mg/kg/injection, schedule: Q04DX003 (ip), vehicle: saline with Tween-80
[8] = dose: 100.0 mg/kg/injection, schedule: Q04DX003 (ip), vehicle: Klucel (hydroxypropylcellulose) (HPC)
[9] = dose: 200.0 mg/kg/injection, schedule: Q04DX003 (ip), vehicle: Klucel (hydroxypropylcellulose) (HPC)
[10] = dose: 400.0 mg/kg/injection, schedule: Q04DX003 (ip), vehicle: Klucel (hydroxypropylcellulose) (HPC)
[11] = dose: 8.0 mg/kg/injection, schedule: Q01DX009 (ip), vehicle: saline
[12] = dose: 12.0 mg/kg/injection, schedule: Q01DX009 (ip), vehicle: saline
[13] = dose: 6.25 mg/kg/injection, schedule: Q01DX009 (ip), vehicle: Klucel (hydroxypropylcellulose) (HPC)
[14] = dose: 12.5 mg/kg/injection, schedule: Q01DX009 (ip), vehicle: Klucel (hydroxypropylcellulose) (HPC)
[15] = dose: 25.0 mg/kg/injection, schedule: Q01DX009 (ip), vehicle: Klucel (hydroxypropylcellulose) (HPC)
[16] = dose: 50.0 mg/kg/injection, schedule: Q01DX009 (ip), vehicle: saline
[17] = dose: 50.0 mg/kg/injection, schedule: Q01DX009 (ip), vehicle: water
[18] = dose: 100.0 mg/kg/injection, schedule: Q01DX009 (ip), vehicle: water

## CCC[CH2][Sn-]([CH2]CCC)([CH2]CCC)[O]c1cc(Cl)c(Cl)cc1Cl
dose: 0.37 mg/kg/injection, schedule: Q01DX009 (ip), vehicle: Klucel (hydroxypropylcellulose) (HPC)
  T/C: 100 % of control
dose: 0.75 mg/kg/injection, schedule: Q01DX009 (ip), vehicle: Klucel (hydroxypropylcellulose) (HPC)
  T/C: 100 % of control
dose: 1.5 mg/kg/injection, schedule: Q01DX009 (ip), vehicle: Klucel (hydroxypropylcellulose) (HPC)
  T/C: 100 % of control
dose: 3.0 mg/kg/injection, schedule: Q01DX009 (ip), vehicle: Klucel (hydroxypropylcellulose) (HPC)
  T/C: 110 % of control
dose: 6.0 mg/kg/injection, schedule: Q01DX009 (ip), vehicle: Klucel (hydroxypropylcellulose) (HPC)
  T/C: 89 % of control

## O=c1[nH]nc(NCCO)c2ccccc12
[1]
  T/C: 112 % of control
[2]
  T/C: 91 % of control
[3]
  T/C: 102 % of control

## CNc1nc(N)nc(Nc2ccc(I)cc2)c1N=O
[2]
  T/C: 90 % of control and 100 % of control
[4]
  T/C: 95 % of control
[3]
  T/C: 90 % of control and 91 % of control
[5]
  T/C: 112 % of control
[6]
  T/C: 87 % of control
[7]
  T/C: 91 % of control

## CC(=O)NNC(=O)c1ccccc1
dose: 12.0 mg/kg/injection, schedule: Q04DX003 (ip), vehicle: Klucel (hydroxypropylcellulose) (HPC)
  T/C: 104 % of control
dose: 25.0 mg/kg/injection, schedule: Q04DX003 (ip), vehicle: Klucel (hydroxypropylcellulose) (HPC)
  T/C: 100 % of control
dose: 50.0 mg/kg/injection, schedule: Q01DX009 (ip), vehicle: Klucel (hydroxypropylcellulose) (HPC)
  T/C: 87 % of control
dose: 50.0 mg/kg/injection, schedule: Q04DX003 (ip), vehicle: Klucel (hydroxypropylcellulose) (HPC)
  T/C: 104 % of control
dose: 75.0 mg/kg/injection, schedule: Q01DX009 (ip), vehicle: Klucel (hydroxypropylcellulose) (HPC)
  T/C: 105 % of control
dose: 75.0 mg/kg/injection, schedule: Q04DX003 (ip), vehicle: Klucel (hydroxypropylcellulose) (HPC)
  T/C: 100 % of control
dose: 100.0 mg/kg/injection, schedule: Q01DX009 (ip), vehicle: Klucel (hydroxypropylcellulose) (HPC)
  T/C: 87 % of control
[8]
  T/C: 90 % of control
dose: 150.0 mg/kg/injection, schedule: Q01DX009 (ip), vehicle: Klucel (hydroxypropylcellulose) (HPC)
  T/C: 110 % of control
dose: 200.0 mg/kg/injection, schedule: Q01DX009 (ip), vehicle: Klucel (hydroxypropylcellulose) (HPC)
  T/C: 91 % of control
[9]
  T/C: 95 % of control and 100 % of control
[10]
  T/C: 109 % of control and 118 % of control

## C[n+]1c2cc(N)ccc2cc2ccc(N)cc21
[11]
  T/C: 152 % of control
[12]
  T/C: 167 % of control

## O=C1C(Cl)=C(N2CCOCC2)C(=O)c2ccccc21
[13]
  T/C: 118 % of control
[14]
  T/C: 108 % of control
[15]
  T/C: 114 % of control

## Cc1ccc(OCC(O)CN2CCN(c3ccc(Cl)cc3)CC2)cc1 (stereo unspecified)
dose: 100.0 mg/kg/injection, schedule: Q04DX003 (ip), vehicle: saline sonified
  T/C: 100 % of control
dose: 200.0 mg/kg/injection, schedule: Q04DX003 (ip), vehicle: saline sonified
  T/C: 100 % of control
dose: 400.0 mg/kg/injection, schedule: Q04DX003 (ip), vehicle: saline sonified
  T/C: 100 % of control

## Oc1ccc(C(O)(c2ccccc2)c2ccc(O)c3ccccc23)c2ccccc12
[2]
  T/C: 95 % of control
[3]
  T/C: 103 % of control
[6]
  T/C: 110 % of control

## C[C@@H]1CC2=CC(=O)CC[C@]2(C)[C@H]2CC[C@]3(C)[C@@H](O)CC[C@H]3[C@H]12
[2]
  T/C: 100 % of control
[4]
  T/C: 100 % of control
[3]
  T/C: 95 % of control
[5]
  T/C: 109 % of control
[6]
  T/C: 90 % of control
[7]
  T/C: 95 % of control

## Cc1cc(O)n(Cc2ccccc2)c(=O)c1
[4]
  T/C: 102 % of control
[5]
  T/C: 87 % of control
[7]
  T/C: 107 % of control

## O=C(Nc1ccc(C2=NCCCN2)cc1)c1ccc(C(=O)Nc2ccc(C3=NCCCN3)cc2)nc1
dose: 0.85 mg/kg/injection, schedule: Q01DX009 (ip), vehicle: saline
  T/C: 92 % of control
dose: 1.3 mg/kg/injection, schedule: Q01DX009 (ip), vehicle: saline
  T/C: 103 % of control
dose: 3.0 mg/kg/injection, schedule: Q01DX009 (ip), vehicle: saline
  T/C: 155 % of control
dose: 5.0 mg/kg/injection, schedule: Q01DX009 (ip), vehicle: saline
  T/C: 175 % of control
[11]
  T/C: 195 % of control
dose: 10.0 mg/kg/injection, schedule: Q01DX009 (ip), vehicle: saline with Tween-80
  T/C: 122 % of control
[12]
  T/C: 153 % of control
dose: 12.5 mg/kg/injection, schedule: Q04DX003 (ip), vehicle: saline
  T/C: 115 % of control
dose: 16.5 mg/kg/injection, schedule: Q04DX003 (ip), vehicle: saline
  T/C: 118 % of control
dose: 18.0 mg/kg/injection, schedule: Q01DX009 (ip), vehicle: saline
  T/C: 226 % of control
dose: 25.0 mg/kg/injection, schedule: Q01DX009 (ip), vehicle: saline
  T/C: 196 % of control

## O=C(O)c1ccccc1O.O=C(O)c1ccccc1O.[O]=[V]
dose: 8.0 mg/kg/injection, schedule: Q01DX010 (ip), vehicle: carboxymethylcellulose (CMC)
  T/C: 90 % of control
dose: 16.0 mg/kg/injection, schedule: Q01DX010 (ip), vehicle: carboxymethylcellulose (CMC)
  T/C: 100 % of control

## CC(Cc1ccccc1)NC1CC2CCC1C2 (stereo unspecified)
[13]
  T/C: 104 % of control
[14]
  T/C: 104 % of control
[15]
  T/C: 113 % of control

## C#CC[N+]12CN3CN(CN(C3)C1)C2
[16]
  T/C: 123 % of control

## CCCCCCCCCC(=O)NN
dose: 50.0 mg/kg/injection, schedule: Q01DX001 (ip), vehicle: saline sonified
  T/C: 95 % of control
dose: 100.0 mg/kg/injection, schedule: Q01DX001 (ip), vehicle: saline sonified
  T/C: 104 % of control
dose: 200.0 mg/kg/injection, schedule: Q01DX001 (ip), vehicle: saline sonified
  T/C: 104 % of control

## CCCCOn1nnc2cc(Cl)ccc21
[1]
  T/C: 97 % of control
[2]
  T/C: 101 % of control
[3]
  T/C: 117 % of control

## Cc1ccc(-c2nc3sccn3c2/C=N/NC(N)=S)cc1
dose: 100.0 mg/kg/injection, schedule: Q01DX001 (ip), vehicle: Klucel (hydroxypropylcellulose) (HPC)
  T/C: 100 % of control
dose: 400.0 mg/kg/injection, schedule: Q01DX001 (ip), vehicle: Klucel (hydroxypropylcellulose) (HPC)
  T/C: 95 % of control

## COc1cc(/C=N/N=C(\N)N[N+](=O)[O-])cc(OC)c1OC
dose: 100.0 mg/kg/injection, schedule: Q01DX001 (ip), vehicle: saline with Tween-80
  T/C: 90 % of control
dose: 200.0 mg/kg/injection, schedule: Q01DX001 (ip), vehicle: saline with Tween-80
  T/C: 90 % of control
dose: 400.0 mg/kg/injection, schedule: Q01DX001 (ip), vehicle: saline with Tween-80
  T/C: 90 % of control

## COC(=O)c1cc(Cl)ccc1OCC(=O)Nc1ccc([N+](=O)[O-])cc1
[8]
  T/C: 95 % of control and 100 % of control
[9]
  T/C: 104 % of control
[10]
  T/C: 87 % of control and 104 % of control

## CSCc1cccc(CO)c1
[2]
  T/C: 110 % of control
[3]
  T/C: 100 % of control
[6]
  T/C: 105 % of control

## N=C(N)c1ccc(N=C(N)Nc2ccc(C(=N)N)cc2)cc1
[16]
  T/C: 118 % of control

## Clc1cc(Cl)c(I)c(Cl)c1
[2]
  T/C: 92 % of control
[8]
  T/C: 100 % of control
[3]
  T/C: 89 % of control
[9]
  T/C: 100 % of control
[6]
  T/C: 96 % of control
[10]
  T/C: 91 % of control

## O=C1NC(c2cccc3ccccc23)Nc2ccccc21 (stereo unspecified)
[17]
  T/C: 169 % of control
[18]
  T/C: 200 % of control
dose: 200.0 mg/kg/injection, schedule: Q01DX009 (ip), vehicle: water
  T/C: 104 % of control

## C=CCCCCCCCCC(=O)Cl
[4]
  T/C: 108 % of control
[5]
  T/C: 104 % of control
[7]
  T/C: 100 % of control

## Clc1ccc(-c2cc(=[N+]3CCOCC3)ss2)cc1
dose: 12.5 mg/kg/injection, schedule: Q01DX009 (ip), vehicle: water
  T/C: 118 % of control
dose: 25.0 mg/kg/injection, schedule: Q01DX009 (ip), vehicle: water
  T/C: 102 % of control
dose: 25.0 mg/kg/injection, schedule: Q04DX003 (ip), vehicle: water
  T/C: 94 % of control
[17]
  T/C: 111 % of control
dose: 50.0 mg/kg/injection, schedule: Q04DX003 (ip), vehicle: water
  T/C: 100 % of control
[18]
  T/C: 111 % of control
dose: 100.0 mg/kg/injection, schedule: Q04DX003 (ip), vehicle: water
  T/C: 90 % of control
dose: 200.0 mg/kg/injection, schedule: Q04DX003 (ip), vehicle: water
  T/C: 110 % of control
